Here are results for 70 molecules from PubChem BioAssay AID179 (DTP/NCI, 2004).

For the assay, the system named is CEM cells HIV-1 protection, formazan growth assay. Description: NCI AIDS Antiviral Assay. The note with it: for IC50: measured here: growth of uninfected CEM cells. The gist of the method: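 Category rules: moderately active means at least 50% protection on retest, and confirmed active means 100% protection reproducibly. The underlying data came from a formazan growth assay in HIV-1-infected CEM cells.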

Active and inactive are the calls of the source.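 The calls were made as follows: active = compounds giving half or more protection of infected cells from virus-caused growth loss, again on retest; inactive = the rest.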 Where a SMILES comes first, the peptide text is derived from it. Side-chain parts run from the residue outwards. The star is where a group is joined. Cbz = O=C(OCc1ccccc1)*; Boc = CC(C)(C)OC(=O)*

Consider `O=C1NC(=O)C(=Cc2cccnc2)C(=O)N1`, for which the EC50 – broadly, the concentration at which the effect is half-maximal – is greater than 200 µM and the IC50 (as a rule, the midpoint of a concentration-inhibition curve) is greater than 200 µM.
`O=C1C(=Cc2cccc(F)c2)C(=O)c2ccccc21`: the EC50 was greater than 20.9 µM and the IC50 is greater than 20.9 µM.
On to `NNC(=O)C(=O)N/N=C(\CCCC(=O)Nc1ccc(Cl)cc1)CC(=O)c1ccc(F)cc1`, for which the EC50 was greater than 269 µM and the IC50 was greater than 269 µM.
As to `OC1(c2ccccc2)CCCCCCCCC(O)(c2ccccc2)CCCCCCCC1` (centres undefined), the EC50 is greater than 200 µM and the half-maximal inhibitory concentration (IC50) is greater than 200 µM.
With `Cc1ccc(N2C(=O)/C(=C/c3ccc(N(CCC#N)CCC#N)cc3)CC2(O)c2ccccc2)cc1` (centres undefined), the EC50 was greater than 7.94 µM and the 50% inhibitory concentration (IC50) was greater than 7.94 µM.
`CC(C)=C(OP1(=S)OCCN1C)C(C)(C)C(=O)N(C)C` (centres undefined): the EC50 is greater than 776 µM and the concentration for half-maximal inhibition (IC50) stood at 537 µM.
The matching figures for `Cn1cnc([N+](=O)[O-])c1Sc1nc2ccccc2o1`: greater than 26.3 µM and 2.75 µM.
The matching figures for `N#CN/C(N)=N/CO`: greater than 776 µM and 46.8 µM.
In the case of `CCc1n[nH]c(=O)n1CCCCCCCCCCCCn1c(CC)n[nH]c1=O`, the EC50 was greater than 200 µM and the IC50 amounted to 41.7 µM.
The matching figures for `O=C1C=C(CCC2=CC(=O)c3ccccc3C2=O)C(=O)c2ccccc21`: greater than 200 µM and 91.2 µM.
`COc1ccc(C(c2c(O)c3ccccc3oc2=O)c2c(O)c3ccccc3oc2=O)cc1`: the EC50 is greater than 200 µM and the IC50 turned out to be 87.1 µM.
The matching figures for `CCOP(=O)(OCC)C(Nc1cccc(F)c1)c1ccc(N(C)C)cc1` (centres undefined): greater than 200 µM and 97.7 µM.
Taken in the same sequence, the figures for `Cc1ccc(-n2cc(-c3ccc(Cl)cc3)c3c2N=CN2NC(c4cccs4)=NC32)cc1` (centres undefined) were greater than 100 µM and 42.7 µM.
The matching figures for `COC(=N)c1ncn(Cc2ccccc2)c1N`: greater than 200 µM and 158 µM.
Regarding `COC(=O)c1cc(Cc2cc(C(=O)OC)c(OC)c(C(F)(F)F)c2)cc(C(F)(F)F)c1OC`, the EC50 is greater than 200 µM and the IC50 is 25.7 µM.
Taken in the same sequence, the figures for `Clc1ccc2c(c1)C1C(CO2)C(c2ccccc2)=NN1c1ccccc1` (centres undefined) were greater than 27.5 µM and greater than 27.5 µM.
The matching figures for `Nc1c(Cl)ncnc1NCC1(CO)CCC1`: greater than 200 µM and 158 µM.
Consider `O=C1/C(=C/c2ccccc2)CN(C(=O)C(F)(F)F)C/C1=C\c1ccccc1`, for which the result was inactive.
For the molecule `CC1=NN(c2nc(N)nc(C(C)Sc3cc(Cl)c(C)cc3S(N)(=O)=O)n2)C(C)(C)C1` (centres undefined), the EC50 was greater than 200 µM and the IC50 worked out at 42.7 µM.
Taken in the same sequence, the figures for `N#CC(C(=O)/C(=N/N)C(C#N)c1ccc(Cl)cc1)c1ccc(Cl)cc1` (centres undefined) were greater than 676 µM and greater than 676 µM.
Taken in the same sequence, the figures for `CC(=O)C(=CC=C(c1ccc(N(C)C)cc1)c1ccc(N(C)C)cc1)C(C)=O` were greater than 5.37 µM and 3.24 µM.
In the case of `COc1cc2c(c(O)c1OC)CC1CCC(=O)N1C2c1cccc2ccccc12` (centres undefined), the EC50 is greater than 200 µM and the IC50 came out at 17.4 µM.
Taken in the same sequence, the figures for `CCN(CC)c1ccc(C2N3CCCCC3[C@@H]3c4[nH]c5ccccc5c4CCN23)cc1` (some centres undefined) were greater than 16.2 µM and greater than 16.2 µM.
Taken in the same sequence, the figures for `NS(=O)(=O)c1ccc(N=Nc2c(O)n(-c3ccccc3)n(-c3ccccc3)c2=O)cc1` were greater than 200 µM and 79.4 µM.
Regarding `O=C(Nc1ccc(Cl)c(Cl)c1)C(=O)Nn1c(=S)[nH]c2ccccc2c1=O`, the EC50 is greater than 437 µM and the IC50 was 257 µM.
Turning to `CC(C)[C@H]1CO[C@@H]2O[C@H](C)C(C)C(=O)N21` (some centres undefined), the EC50 was greater than 1170 µM and the IC50 is greater than 1170 µM.
As to `COc1ccc(-c2coc3c4c(ccc3c2=O)OCO4)cc1OC`, the result was inactive.
Take `Cn1ccnc1Oc1ccc(Cl)cc1`: the EC50 was greater than 200 µM and the half-maximal inhibitory concentration (IC50) was 9.77 µM.
Regarding `COc1ccc2c(=O)c(-c3ccc(OC)c(OC)c3OCc3ccccc3)coc2c1`, the EC50 was greater than 200 µM and the IC50 was found to be 69.2 µM.
For `CCOC(=O)c1c(C)cc(C)nc1[S][Sn]([Br])([Br])[S]c1nc(C)cc(C)c1C(=O)OCC`, the EC50 is 40.7 µM and the IC50 was determined as 51.3 µM.
As for `O=[N+]([O-])C[C@@]12O[C@]3(O)C4C5CC(C6C5C3C61)C42` (some centres undefined), the EC50 is greater than 200 µM and the IC50 is greater than 200 µM.
Consider `COC(=O)C1C(=O)C(C(=O)OC)C2(C)C(C(=O)OC)C(=O)C(C(=O)OC)C12` (centres undefined), for which the EC50 was greater than 468 µM and the half-inhibitory concentration (IC50) was greater than 468 µM.
`Cc1ccccc1-n1c(C)nc(-c2ccccc2)cc1=O`: the EC50 was greater than 26.3 µM and the IC50 is greater than 26.3 µM.
On to `CC(C)=CCC[C@@H](C)C1=C(O)C(Nc2ccccc2Br)=C(C)C(=O)C1=O`, for which the EC50 was greater than 100 µM and the half-maximal inhibitory concentration (IC50) worked out at 8.13 µM.
Taken in the same sequence, the figures for `Cc1ccc(-c2cn3c(nc4ccccc43)c(C)n2)cc1` were greater than 200 µM and 66.1 µM.
With `Cc1cc(C)nc(NS(=O)(=O)c2ccc(NCN3C(=O)c4ccccc4C3=O)cc2)n1`, the EC50 is greater than 200 µM and the IC50 came to 110 µM.
Consider `CCOC(=O)c1ccc(CS(=O)(=O)c2ccccc2)c([N+](=O)[O-])c1`, for which the EC50 was greater than 102 µM and the IC50 is greater than 102 µM.
Take `C/C(=N\NC(=O)c1ccncc1)c1cccc(/C(C)=N/NC(=O)c2ccncc2)n1.O=S(=O)([O-])[O-].[Fe+2]`: the EC50 is greater than 200 µM and the IC50 was 16.2 µM.
As for `O=C(CCCC[n+]1ccccc1)Sc1ccccc1C(=O)Nc1ccc(S(=O)(=O)Nc2ncccn2)cc1`, the EC50 is 17 µM and the IC50 worked out at 56.2 µM.
On to `CN(C)Cc1cc(/C=C/C(=O)c2ccc(Cl)c(Cl)c2)cc(CN(C)C)c1O`, for which the EC50 was greater than 151 µM and the IC50 was 6.31 µM.
The matching figures for `CC(=O)OCC1OC([n+]2c([O-])cc(=O)n3ccsc32)C(OC(C)=O)C1OC(C)=O` (centres undefined): greater than 589 µM and greater than 589 µM.
With `Nc1ccc2c(SCc3ccc([N+](=O)[O-])cc3)c3ccccc3nc2c1`, the EC50 is greater than 20 µM and the IC50 amounted to 3.02 µM.
Taken in the same sequence, the figures for `COc1cccc(/C=N/[N-]C(N)=O)c1[O-].[OH3+].[Pd+2]` were greater than 21.9 µM and greater than 21.9 µM.
Regarding `CCN(CC)CCC(=O)c1ccc(Oc2ccc(C)cc2)cc1`, the EC50 is greater than 200 µM and the IC50 worked out at 28.8 µM.
For `COc1cc(NC(=O)c2ccc(NC(=O)c3ccc(N)cc3)cc2)c(OC)cc1N=Nc1ccc(N=Nc2ccc3cc(S(=O)(=O)O)cc(S(=O)(=O)O)c3c2)c(C)c1`, the EC50 was 19.5 µM and the IC50 is greater than 100 µM.
Taken in the same sequence, the figures for `CC1=C(OC2OC(CO)C(O)C(O)C2O)C(=O)C[C@H]2C1=CC[C@@H]1[C@@]2(C)C(=O)C[C@]2(C)[C@@H]([C@@](C)(O)C(=O)CCC(C)(C)O)[C@H](O)C[C@@]12C` (some centres undefined) were greater than 200 µM and greater than 200 µM.
The matching figures for `CC(C)(C)OC(=O)NC(CCCCNC(=O)CNC(=O)OCc1ccccc1)C(=O)NC(CCCCNC(=O)CNC(=O)OCc1ccccc1)C(=O)NC(CCCCNC(=O)CNC(=O)OCc1ccccc1)C(=O)NC(CCCCNC(=O)CNC(=O)OCc1ccccc1)C(=O)O` (centres undefined) (Boc-K([Gly-Cbz])K([Gly-Cbz])K([Gly-Cbz])K([Gly-Cbz])-OH; configuration not given here): 72.4 µM and greater than 100 µM.
The matching figures for `C=CCn1nnc2ccccc2c1=O`: greater than 692 µM and greater than 692 µM.
Take `CC(=O)n1c(=S)n(C(C)=O)c2ccccc21`: the EC50 is greater than 200 µM and the half-maximal inhibitory concentration (IC50) is greater than 200 µM.
Take `CCOC(=O)c1ncoc1[C@H]1COC(C)(C)O1`: the result was inactive.
For `CC1CCC2C(C)C(=O)OC3OC4(C)CCC1C32OO4` (centres undefined), the EC50 was greater than 457 µM and the IC50 worked out at 288 µM.
Taken in the same sequence, the figures for `COc1ccc(Cc2c(N)[nH]c(=O)[nH]c2=O)cc1` were greater than 200 µM and greater than 200 µM.
Taken in the same sequence, the figures for `CC(C)c1ncc([N+](=O)[O-])n1C` were greater than 200 µM and greater than 200 µM.
As for `CC(C)CC(NC(=O)C(NC(=O)C(CO)NC(=O)C(C)NC(=O)C(CCCN=C(N)N)NC(=O)C(C)NC(=O)CN)C(C)C)C(=O)NC(CO)C(N)=O` (centres undefined) (H-GARASVLS-NH2; configuration not given here), the outcome was inactive.
`Cc1nc2ccccc2c(=O)n1NC(=O)c1ccc(N)cc1`: the EC50 is greater than 200 µM and the IC50 is greater than 200 µM.
With `Nc1nc2c(c(=O)[nH]1)C(c1ccccc1)CC(=O)N2` (centres undefined), the EC50 is greater than 200 µM and the IC50 is greater than 200 µM.
The molecule `[O]=[Sb]([OH])([OH])[c]1ccc(O)cc1` had an EC50 greater than 200 µM and a concentration for half-maximal inhibition (IC50) of 33.9 µM.
Taken in the same sequence, the figures for `O=P1(Oc2ccc(Cl)cc2)OCCS1` (centres undefined) were greater than 200 µM and greater than 200 µM.
`CNCCS(=O)(=O)O`: the EC50 was greater than 200 µM and the IC50 was greater than 200 µM.
For `CN1C(=O)CN2C(Cl)(Cl)C2(c2ccccc2F)c2cc([N+](=O)[O-])ccc21` (centres undefined), the EC50 was greater than 200 µM and the IC50 was 141 µM.
Taken in the same sequence, the figures for `CC1(C)C(=O)C(C)(C)C1O` were greater than 1780 µM and greater than 1780 µM.
On to `COc1nc(NC2OC(COC(C)=O)C(OC(C)=O)C(OC(C)=O)C2OC(C)=O)c2c(n1)OCC2=O` (centres undefined), for which the outcome was inactive.
As to `CONC(C)=O`, the EC50 was greater than 200 µM and the IC50 was greater than 200 µM.
Turning to `CC(C)OCN1COCN=C1NC#N`, the EC50 was greater than 447 µM and the IC50 was greater than 447 µM.
For `C1CN(SSN2CCSCC2)CCS1`, the EC50 is greater than 5.37 µM and the IC50 was greater than 5.37 µM.
Turning to `O=C1CCCC2COc3ccc(O)c1c32` (centres undefined), the result was inactive.
Regarding `CCC1Oc2c(CC=C(C)C)c(O)c(C(O)C(C)CC)c3oc(=O)cc1c23` (centres undefined), the EC50 was greater than 200 µM and the IC50 came to 26.3 µM.
As to `CCC(CC)(CO)CNc1cc(Cl)nc(N)n1`, the EC50 was greater than 200 µM and the IC50 is greater than 100 µM.
On to `Cc1ccc(N2CCc3c(C)c(C#N)c4nc5ccccc5n4c32)cc1`, for which the EC50 is greater than 200 µM and the IC50 was greater than 200 µM.
On to `O=C(O)C1C2CCC(O2)C1C(=O)O` (centres undefined), for which the EC50 is greater than 1350 µM and the IC50 was greater than 1350 µM.
